Biological target: T1, HCP4 (AnHCP4, holo-HCP4) (Nostoc sp. PCC 7120 = FACHB-418, UniProt Q8YMJ2)
T1 construct: gene all4941; C-terminal His-tag (pCDF-all4941-Ctag), expressed in E. coli BL21(DE3) with pAC-CANthipi; holo separated from apo on MonoQ
T1 sequence (Q8YMJ2 1-171): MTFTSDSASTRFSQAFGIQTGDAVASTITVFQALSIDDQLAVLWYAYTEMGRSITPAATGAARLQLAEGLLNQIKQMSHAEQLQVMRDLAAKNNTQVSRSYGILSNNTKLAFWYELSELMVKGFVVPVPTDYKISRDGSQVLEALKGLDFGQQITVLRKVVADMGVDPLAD
Assay: holoprotein purified from carotenoid-producing E. coli; separated from apoprotein by anion exchange; absorbance at […] nm
Assay type: binding
Conditions: 50 mM Tris pH 8; 1:1 HCP4:CAN ratio used for quantification

## CC1=C(/C=C/C(C)=C/C=C/C(C)=C/C=C/C=C(C)/C=C/C=C(C)/C=C/C2=C(C)C(=O)CCC2(C)C)C(C)(C)CCC1=O [canthaxanthin]
  holoprotein purified from carotenoid-producing E. coli; separated from apoprotei: For HCP4, the holoprotein was eluted in the flow through and column wash
